± gives the expanded uncertainty stated by the source.
What was measured:
[1] = for molar entropy: 101.33 kPa, Vacuum adiabatic calorimetry; for Triple point temperature: Adiabatic calorimetry
[2] = molar heat capacity at saturation pressure; details: Crystal 2, Vacuum adiabatic calorimetry

In the case of `O=c1c2ccccc2oc2ccccc12` [9H-xanthen-9-one], the molar entropy ([1]; 5 K, Crystal 2) is reported as 0.1497 ± 0.017 J/K/mol, the molar entropy ([1]; 10 K, Crystal 2) is reported as 1.189 ± 0.025 J/K/mol and the molar entropy ([1]; 20 K, Crystal 2) is reported as 7.009 ± 0.075 J/K/mol. For the same compound, the molar entropy ([1]; 30 K, Crystal 2) was 15.42 ± 0.083 J/K/mol, the molar entropy ([1]; 40 K, Crystal 2) was 24.67 ± 0.11 J/K/mol and the molar entropy ([1]; 50 K, Crystal 2) was 34.01 ± 0.12 J/K/mol. The molar entropy ([1]; 60 K, Crystal 2) was 43.17 ± 0.15 J/K/mol, the molar entropy ([1]; 70 K, Crystal 2) was 52.07 ± 0.17 J/K/mol and the molar entropy ([1]; 80 K, Crystal 2) was 60.7 ± 0.19 J/K/mol. It also gave a molar entropy ([1]; 90 K, Crystal 2) of 69.08 ± 0.32 J/K/mol, a molar entropy ([1]; 100 K, Crystal 2) of 77.26 ± 0.32 J/K/mol and a molar entropy ([1]; 120 K, Crystal 2) of 93.11 ± 0.34 J/K/mol. It also gave a molar entropy ([1]; 140 K, Crystal 2) of 108.46 ± 0.37 J/K/mol, a molar entropy ([1]; 160 K, Crystal 2) of 123.49 ± 0.39 J/K/mol and a molar entropy ([1]; 180 K, Crystal 2) of 138.32 ± 0.42 J/K/mol. For the same compound, the molar entropy ([1]; 200 K, Crystal 2) was 153.04 ± 0.44 J/K/mol, the molar entropy ([1]; 220 K, Crystal 2) was 167.73 ± 0.47 J/K/mol and the molar entropy ([1]; 240 K, Crystal 2) was 182.41 ± 0.49 J/K/mol. For the same compound, the molar entropy ([1]; 260 K, Crystal 2) was 197.12 ± 0.52 J/K/mol, the molar entropy ([1]; 280 K, Crystal 2) was 211.88 ± 0.54 J/K/mol and the molar entropy ([1]; 298.15 K, Crystal 2) was 225.36 ± 0.57 J/K/mol. The molar entropy ([1]; 300 K, Crystal 2) was 226.74 ± 0.57 J/K/mol, the molar entropy ([1]; 304.5 K, Crystal 1) was 230.12 ± 0.57 J/K/mol and the molar entropy ([1]; 304.5 K, Crystal 2) was 230.12 ± 0.57 J/K/mol. For the same compound, the molar entropy ([1]; 320 K, Crystal 1) was 241.19 ± 0.59 J/K/mol, the molar entropy ([1]; 340 K, Crystal 1) was 255.47 ± 0.62 J/K/mol and the molar entropy ([1]; 360 K, Crystal 1) was 269.69 ± 0.64 J/K/mol. It also gave a molar entropy ([1]; 380 K, Crystal 1) of 283.87 ± 0.67 J/K/mol, a molar entropy ([1]; 400 K, Crystal 1) of 298 ± 0.69 J/K/mol and a molar entropy ([1]; 420 K, Crystal 1) of 312.06 ± 0.72 J/K/mol. For the same compound, the molar entropy ([1]; 440 K, Crystal 1) was 326.08 ± 0.74 J/K/mol, the molar entropy ([1]; 448.8 K, Crystal 1) was 332.22 ± 0.76 J/K/mol and the molar entropy ([1]; 448.8 K, Liquid) was 393.44 ± 0.86 J/K/mol. It also gave a molar entropy ([1]; 460 K, Liquid) of 402.2 ± 0.88 J/K/mol, a mass density ([1]; 473 K, Liquid, Pycnometric method) of 1090 ± 20 kg/m3 and a molar entropy ([1]; 480 K, Liquid) of 417.58 ± 0.91 J/K/mol. For the same compound, the molar entropy ([1]; 500 K, Liquid) was 432.68 ± 0.93 J/K/mol, the molar entropy ([1]; 520 K, Liquid) was 447.51 ± 0.96 J/K/mol and the Triple point temperature ([1]; Crystal 1) was 448.8 ± 0.041 K. It also gave a Triple point temperature ([1]; Crystal 2) of 304.5 ± 0.05 K, a molar heat capacity ([2]; 4.948 K) of 0.4157 ± 0.017 J/K/mol and a molar heat capacity ([2]; 5 K) of 0.449 ± 0.025 J/K/mol. The molar heat capacity ([2]; 5.884 K) was 0.7317 ± 0.025 J/K/mol, the molar heat capacity ([2]; 6.774 K) was 1.131 ± 0.042 J/K/mol and the molar heat capacity ([2]; 7.756 K) was 1.68 ± 0.058 J/K/mol. The molar heat capacity ([2]; 8.886 K) was 2.494 ± 0.083 J/K/mol, the molar heat capacity ([2]; 10 K) was 3.475 ± 0.042 J/K/mol and the molar heat capacity ([2]; 10.01 K) was 3.492 ± 0.033 J/K/mol. For the same compound, the molar heat capacity ([2]; 11.15 K) was 4.606 ± 0.042 J/K/mol, the molar heat capacity ([2]; 12.42 K) was 5.895 ± 0.05 J/K/mol and the molar heat capacity ([2]; 13.82 K) was 7.574 ± 0.067 J/K/mol. For the same compound, the molar heat capacity ([2]; 15.41 K) was 9.42 ± 0.075 J/K/mol, the molar heat capacity ([2]; 17.21 K) was 11.62 ± 0.083 J/K/mol and the molar heat capacity ([2]; 19.14 K) was 14.03 ± 0.1 J/K/mol. It also gave a molar heat capacity ([2]; 20 K) of 15.07 ± 0.1 J/K/mol, a molar heat capacity ([2]; 21.27 K) of 16.62 ± 0.11 J/K/mol and a molar heat capacity ([2]; 23.69 K) of 19.61 ± 0.12 J/K/mol. For the same compound, the molar heat capacity ([2]; 26.45 K) was 22.93 ± 0.14 J/K/mol, the molar heat capacity ([2]; 29.52 K) was 26.48 ± 0.15 J/K/mol and the molar heat capacity ([2]; 30 K) was 27.03 ± 0.075 J/K/mol. For the same compound, the molar heat capacity ([2]; 32.99 K) was 30.34 ± 0.083 J/K/mol, the molar heat capacity ([2]; 36.76 K) was 34.3 ± 0.083 J/K/mol and the molar heat capacity ([2]; 40 K) was 37.43 ± 0.091 J/K/mol. For the same compound, the molar heat capacity ([2]; 40.81 K) was 38.18 ± 0.091 J/K/mol, the molar heat capacity ([2]; 45.21 K) was 42.3 ± 0.1 J/K/mol and the molar heat capacity ([2]; 49.99 K) was 46.39 ± 0.11 J/K/mol. The molar heat capacity ([2]; 50 K) was 46.4 ± 0.11 J/K/mol, the molar heat capacity ([2]; 55.3 K) was 50.63 ± 0.12 J/K/mol and the molar heat capacity ([2]; 60 K) was 54.19 ± 0.12 J/K/mol. It also gave a molar heat capacity ([2]; 61.27 K) of 55.12 ± 0.12 J/K/mol, a molar heat capacity ([2]; 67.42 K) of 59.55 ± 0.12 J/K/mol and a molar heat capacity ([2]; 70 K) of 61.32 ± 0.13 J/K/mol. The molar heat capacity ([2]; 74.05 K) was 64.05 ± 0.13 J/K/mol, the molar heat capacity ([2]; 80 K) was 68.05 ± 0.14 J/K/mol and the molar heat capacity ([2]; 81.42 K) was 68.99 ± 0.14 J/K/mol. The molar heat capacity ([2]; 89.28 K) was 74.02 ± 0.15 J/K/mol, the molar heat capacity ([2]; 90 K) was 74.5 ± 0.22 J/K/mol and the molar heat capacity ([2]; 97.77 K) was 79.43 ± 0.22 J/K/mol. It also gave a molar heat capacity ([2]; 100 K) of 80.83 ± 0.22 J/K/mol, a molar heat capacity ([2]; 107.1 K) of 85.28 ± 0.22 J/K/mol and a molar heat capacity ([2]; 116.86 K) of 91.41 ± 0.22 J/K/mol. The molar heat capacity ([2]; 120 K) was 93.39 ± 0.22 J/K/mol, the molar heat capacity ([2]; 126.79 K) was 97.69 ± 0.23 J/K/mol and the molar heat capacity ([2]; 136.84 K) was 104.11 ± 0.24 J/K/mol. It also gave a molar heat capacity ([2]; 140 K) of 106.16 ± 0.24 J/K/mol and a molar heat capacity ([2]; 146.73 K) of 110.54 ± 0.25 J/K/mol.
